Data as given in ChEMBL document CHEMBL5360563, “Discovery of a potent and selective allosteric inhibitor targeting the SHP2 tunnel site for RTK-driven cancer treatment” (Eur J Med Chem, 2023).

How the values were obtained:
[1] = target: T1, Tyrosine-protein phosphatase non-receptor type 11 (Homo sapiens, UniProt Q06124); experiment: Inhibition of pIRS-1 peptide activated human wild type SHP2 FL (Met1 to Leu525 residues) using DiFMUP as substrate preincubated for 30 mins followed by substrate addition and measured after 30 mins by microplate reader method
T1 sequence (Q06124 whole entry): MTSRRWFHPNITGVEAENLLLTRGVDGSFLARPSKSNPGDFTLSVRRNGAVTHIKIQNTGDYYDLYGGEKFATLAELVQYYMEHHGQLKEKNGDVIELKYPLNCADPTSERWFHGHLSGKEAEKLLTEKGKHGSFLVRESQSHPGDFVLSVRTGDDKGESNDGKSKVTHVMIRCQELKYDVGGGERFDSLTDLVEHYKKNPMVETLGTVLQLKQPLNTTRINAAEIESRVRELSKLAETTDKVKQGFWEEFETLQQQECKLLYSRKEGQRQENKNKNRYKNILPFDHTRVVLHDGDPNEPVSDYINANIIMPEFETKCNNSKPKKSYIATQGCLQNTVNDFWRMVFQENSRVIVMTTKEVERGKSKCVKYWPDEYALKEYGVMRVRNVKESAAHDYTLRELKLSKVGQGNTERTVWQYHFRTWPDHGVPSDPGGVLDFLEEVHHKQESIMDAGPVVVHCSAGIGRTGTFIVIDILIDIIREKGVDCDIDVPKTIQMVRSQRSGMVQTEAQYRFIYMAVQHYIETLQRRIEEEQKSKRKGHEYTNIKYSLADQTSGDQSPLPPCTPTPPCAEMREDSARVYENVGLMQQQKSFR

[2] = target: T2, Serine/threonine-protein kinase STK11 (Homo sapiens) (UniProt Q15831); conditions: dose 1000.0 nM
T2 sequence (whole entry): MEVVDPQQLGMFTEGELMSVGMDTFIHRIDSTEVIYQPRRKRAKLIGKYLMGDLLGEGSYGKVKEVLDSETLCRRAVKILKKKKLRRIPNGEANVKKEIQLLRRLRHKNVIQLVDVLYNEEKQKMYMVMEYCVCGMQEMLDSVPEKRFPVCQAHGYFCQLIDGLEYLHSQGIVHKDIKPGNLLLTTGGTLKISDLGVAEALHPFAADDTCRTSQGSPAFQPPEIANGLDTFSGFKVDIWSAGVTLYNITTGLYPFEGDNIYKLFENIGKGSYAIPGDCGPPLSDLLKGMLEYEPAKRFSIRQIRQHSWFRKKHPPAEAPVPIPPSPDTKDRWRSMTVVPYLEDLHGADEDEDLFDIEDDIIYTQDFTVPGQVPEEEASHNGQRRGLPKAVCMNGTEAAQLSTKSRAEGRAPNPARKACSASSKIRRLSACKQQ
Description: Inhibition of LKB1 (unknown origin) at 1000 nM by KINOMEscan assay relative to control

[3] = AUC (0 to infinity) in Sprague-Dawley rat at 5 mg/kg, po and measured upto 24 hrs by LC-MS/MS analysis; assay type: ADME, organism-based; set-up: dose 5 mg/kg, time < 24 hrs, route po; conditions: in vivo
[4] = target: T1, Tyrosine-protein phosphatase non-receptor type 11; experiment: Inhibition of human SHP2 in human NCI-H1975/OSIR cells assessed as reduction in ERK phosphorylation by Western blot analysis; assay type: cell-based
[5] = Oral bioavailability in Sprague-Dawley rat at 5 mg/kg and measured upto 24 hrs by LC-MS/MS analysis; assay type: ADME, organism-based; conditions: in vivo
[6] = target: T3, TGF-beta receptor type-1 (Homo sapiens) (UniProt P36897); conditions: dose 1000.0 nM
T3 sequence (whole entry): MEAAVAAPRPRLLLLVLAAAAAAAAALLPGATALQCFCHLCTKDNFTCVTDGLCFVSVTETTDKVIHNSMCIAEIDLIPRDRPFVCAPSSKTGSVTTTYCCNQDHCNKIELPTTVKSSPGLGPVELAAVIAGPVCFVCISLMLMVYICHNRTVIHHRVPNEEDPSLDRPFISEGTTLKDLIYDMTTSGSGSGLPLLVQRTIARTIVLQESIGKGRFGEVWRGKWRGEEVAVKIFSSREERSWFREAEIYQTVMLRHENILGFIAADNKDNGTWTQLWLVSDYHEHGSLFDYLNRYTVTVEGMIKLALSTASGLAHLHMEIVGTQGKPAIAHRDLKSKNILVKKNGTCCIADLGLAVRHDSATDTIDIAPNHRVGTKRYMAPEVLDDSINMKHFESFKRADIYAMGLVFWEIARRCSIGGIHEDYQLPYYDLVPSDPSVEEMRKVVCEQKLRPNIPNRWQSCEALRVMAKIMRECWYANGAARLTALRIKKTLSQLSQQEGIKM
Description: Inhibition of TGFBR1 (unknown origin) at 1000 nM by KINOMEscan assay relative to control

[7] = Tmax in Sprague-Dawley rat at 5 mg/kg, iv and measured upto 24 hrs by LC-MS/MS analysis; assay type: ADME, organism-based; conditions: in vivo
[8] = Half life in Sprague-Dawley rat at 5 mg/kg, iv and measured upto 24 hrs by LC-MS/MS analysis; assay type: ADME, organism-based; conditions: in vivo
[9] = Volume of distribution at steady state in Sprague-Dawley rat at 5 mg/kg, iv and measured upto 24 hrs by LC-MS/MS analysis; assay type: ADME, organism-based; conditions: in vivo, read-out: Vdss
[10] = target: T1, Tyrosine-protein phosphatase non-receptor type 11; experiment: Inhibition of human SHP2 in human NCI-H1975 cells assessed as reduction in ERK phosphorylation by Western blot analysis; assay type: cell-based
[11] = AUC (0 to infinity) in Sprague-Dawley rat at 5 mg/kg, iv and measured upto 24 hrs by LC-MS/MS analysis; assay type: ADME, organism-based; set-up: dose 5 mg/kg, time < 24 hrs, route iv; conditions: in vivo
[12] = Half life in Sprague-Dawley rat at 5 mg/kg, po and measured upto 24 hrs by LC-MS/MS analysis; assay type: ADME, organism-based; conditions: in vivo
[13] = target: Dual specificity tyrosine-phosphorylation-regulated kinase 1B (Homo sapiens) (UniProt Q9Y463); conditions: dose 1000.0 nM
Description: Inhibition of DYRK1B (unknown origin) at 1000 nM by KINOMEscan assay relative to control

[14] = Clearance in Sprague-Dawley rat at 5 mg/kg, iv and measured upto 24 hrs by LC-MS/MS analysis; assay type: ADME, organism-based; conditions: in vivo
[15] = target: Phosphatidylinositol 4-phosphate 3-kinase C2 domain-containing subunit beta (Homo sapiens) (UniProt O00750); conditions: dose 1000.0 nM
Description: Inhibition of PIK3C2B (unknown origin) at 1000 nM by KINOMEscan assay relative to control

[16] = Cmax in Sprague-Dawley rat at 5 mg/kg, po and measured upto 24 hrs by LC-MS/MS analysis; assay type: ADME, organism-based; set-up: dose 5 mg/kg, time < 24 hrs, route po; conditions: in vivo
[17] = target: Serine/threonine-protein kinase 32C (Homo sapiens) (UniProt Q86UX6); conditions: dose 1000.0 nM
Description: Inhibition of YANK3 (unknown origin) at 1000 nM by KINOMEscan assay relative to control

[18] = target: Insulin receptor (Homo sapiens) (UniProt P06213); conditions: dose 1000.0 nM
Description: Inhibition of INSR (unknown origin) at 1000 nM by KINOMEscan assay relative to control

[19] = Tmax in Sprague-Dawley rat at 5 mg/kg, po and measured upto 24 hrs by LC-MS/MS analysis; assay type: ADME, organism-based; conditions: in vivo
[20] = Cmax in Sprague-Dawley rat at 5 mg/kg, iv and measured upto 24 hrs by LC-MS/MS analysis; assay type: ADME, organism-based; set-up: dose 5 mg/kg, time < 24 hrs, route iv; conditions: in vivo

Dual specificity tyrosine-phosphorylation-regulated kinase 1B (Homo sapiens), sequence (Q9Y463 whole entry, looked up): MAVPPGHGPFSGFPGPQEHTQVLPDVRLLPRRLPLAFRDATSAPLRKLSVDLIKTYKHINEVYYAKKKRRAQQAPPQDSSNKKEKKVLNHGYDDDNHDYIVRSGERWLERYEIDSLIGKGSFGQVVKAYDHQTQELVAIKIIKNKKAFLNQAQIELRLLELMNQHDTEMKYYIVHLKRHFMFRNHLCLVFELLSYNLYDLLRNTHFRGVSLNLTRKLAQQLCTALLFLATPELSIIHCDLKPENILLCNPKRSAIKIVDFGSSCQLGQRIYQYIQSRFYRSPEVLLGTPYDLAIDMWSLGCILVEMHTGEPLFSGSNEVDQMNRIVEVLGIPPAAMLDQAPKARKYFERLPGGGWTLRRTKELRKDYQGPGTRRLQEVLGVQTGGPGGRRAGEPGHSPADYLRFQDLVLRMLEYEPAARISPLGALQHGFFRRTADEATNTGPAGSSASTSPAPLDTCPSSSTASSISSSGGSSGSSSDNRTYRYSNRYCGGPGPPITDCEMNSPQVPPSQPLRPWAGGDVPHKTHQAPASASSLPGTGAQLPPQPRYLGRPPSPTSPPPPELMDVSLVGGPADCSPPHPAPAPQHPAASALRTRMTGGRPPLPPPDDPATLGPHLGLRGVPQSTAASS
Insulin receptor (Homo sapiens), sequence (P06213 28-758 limits assumed): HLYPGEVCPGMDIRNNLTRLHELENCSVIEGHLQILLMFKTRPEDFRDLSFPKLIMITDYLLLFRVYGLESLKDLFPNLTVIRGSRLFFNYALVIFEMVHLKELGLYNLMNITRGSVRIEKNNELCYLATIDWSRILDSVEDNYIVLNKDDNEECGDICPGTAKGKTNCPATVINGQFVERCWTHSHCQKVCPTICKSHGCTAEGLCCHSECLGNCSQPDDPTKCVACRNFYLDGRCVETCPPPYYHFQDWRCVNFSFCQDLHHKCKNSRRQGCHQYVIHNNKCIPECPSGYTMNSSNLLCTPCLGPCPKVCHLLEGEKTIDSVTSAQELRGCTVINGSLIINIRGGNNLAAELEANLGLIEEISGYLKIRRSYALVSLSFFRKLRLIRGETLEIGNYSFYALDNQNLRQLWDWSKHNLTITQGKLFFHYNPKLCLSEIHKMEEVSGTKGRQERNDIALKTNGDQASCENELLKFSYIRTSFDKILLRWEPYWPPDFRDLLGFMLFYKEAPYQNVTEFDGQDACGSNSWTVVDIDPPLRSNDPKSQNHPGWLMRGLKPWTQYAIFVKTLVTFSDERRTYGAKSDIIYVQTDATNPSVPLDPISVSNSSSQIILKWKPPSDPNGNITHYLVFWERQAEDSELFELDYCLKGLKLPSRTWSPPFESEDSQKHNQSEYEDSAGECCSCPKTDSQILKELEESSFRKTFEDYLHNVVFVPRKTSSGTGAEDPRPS
Insulin receptor (Homo sapiens), sequence (P06213 763-1382 limits assumed): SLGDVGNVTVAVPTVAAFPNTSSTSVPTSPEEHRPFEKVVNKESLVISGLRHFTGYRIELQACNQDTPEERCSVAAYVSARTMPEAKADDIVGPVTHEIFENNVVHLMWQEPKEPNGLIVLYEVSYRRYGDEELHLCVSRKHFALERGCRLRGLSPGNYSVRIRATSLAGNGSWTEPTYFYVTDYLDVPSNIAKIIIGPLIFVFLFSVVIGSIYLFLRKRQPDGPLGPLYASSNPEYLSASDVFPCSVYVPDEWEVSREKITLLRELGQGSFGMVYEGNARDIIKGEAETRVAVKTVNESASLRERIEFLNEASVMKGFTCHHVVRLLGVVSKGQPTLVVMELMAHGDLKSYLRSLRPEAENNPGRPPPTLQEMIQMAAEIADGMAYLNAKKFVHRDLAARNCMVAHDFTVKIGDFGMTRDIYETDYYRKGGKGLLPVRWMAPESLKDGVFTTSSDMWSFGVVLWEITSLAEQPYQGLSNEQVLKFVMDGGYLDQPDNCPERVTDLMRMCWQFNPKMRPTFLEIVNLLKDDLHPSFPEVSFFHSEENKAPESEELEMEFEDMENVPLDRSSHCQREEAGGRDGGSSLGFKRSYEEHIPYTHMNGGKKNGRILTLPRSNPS
Serine/threonine-protein kinase 32C (Homo sapiens), sequence (Q86UX6 whole entry): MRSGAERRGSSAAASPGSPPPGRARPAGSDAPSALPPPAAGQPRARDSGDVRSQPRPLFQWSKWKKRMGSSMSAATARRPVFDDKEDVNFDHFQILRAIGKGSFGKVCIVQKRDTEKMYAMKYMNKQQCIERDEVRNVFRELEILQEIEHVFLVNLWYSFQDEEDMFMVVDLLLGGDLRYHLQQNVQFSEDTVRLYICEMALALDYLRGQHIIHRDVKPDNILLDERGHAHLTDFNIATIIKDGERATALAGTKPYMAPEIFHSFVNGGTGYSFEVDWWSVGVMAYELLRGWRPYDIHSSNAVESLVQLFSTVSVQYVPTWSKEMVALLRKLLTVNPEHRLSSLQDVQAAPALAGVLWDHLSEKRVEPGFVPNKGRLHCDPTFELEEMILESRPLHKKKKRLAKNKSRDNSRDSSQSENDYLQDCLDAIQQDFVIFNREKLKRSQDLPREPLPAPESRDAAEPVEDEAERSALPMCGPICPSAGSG
Phosphatidylinositol 4-phosphate 3-kinase C2 domain-containing subunit beta (Homo sapiens), sequence (O00750 whole entry, the tested form may be a part): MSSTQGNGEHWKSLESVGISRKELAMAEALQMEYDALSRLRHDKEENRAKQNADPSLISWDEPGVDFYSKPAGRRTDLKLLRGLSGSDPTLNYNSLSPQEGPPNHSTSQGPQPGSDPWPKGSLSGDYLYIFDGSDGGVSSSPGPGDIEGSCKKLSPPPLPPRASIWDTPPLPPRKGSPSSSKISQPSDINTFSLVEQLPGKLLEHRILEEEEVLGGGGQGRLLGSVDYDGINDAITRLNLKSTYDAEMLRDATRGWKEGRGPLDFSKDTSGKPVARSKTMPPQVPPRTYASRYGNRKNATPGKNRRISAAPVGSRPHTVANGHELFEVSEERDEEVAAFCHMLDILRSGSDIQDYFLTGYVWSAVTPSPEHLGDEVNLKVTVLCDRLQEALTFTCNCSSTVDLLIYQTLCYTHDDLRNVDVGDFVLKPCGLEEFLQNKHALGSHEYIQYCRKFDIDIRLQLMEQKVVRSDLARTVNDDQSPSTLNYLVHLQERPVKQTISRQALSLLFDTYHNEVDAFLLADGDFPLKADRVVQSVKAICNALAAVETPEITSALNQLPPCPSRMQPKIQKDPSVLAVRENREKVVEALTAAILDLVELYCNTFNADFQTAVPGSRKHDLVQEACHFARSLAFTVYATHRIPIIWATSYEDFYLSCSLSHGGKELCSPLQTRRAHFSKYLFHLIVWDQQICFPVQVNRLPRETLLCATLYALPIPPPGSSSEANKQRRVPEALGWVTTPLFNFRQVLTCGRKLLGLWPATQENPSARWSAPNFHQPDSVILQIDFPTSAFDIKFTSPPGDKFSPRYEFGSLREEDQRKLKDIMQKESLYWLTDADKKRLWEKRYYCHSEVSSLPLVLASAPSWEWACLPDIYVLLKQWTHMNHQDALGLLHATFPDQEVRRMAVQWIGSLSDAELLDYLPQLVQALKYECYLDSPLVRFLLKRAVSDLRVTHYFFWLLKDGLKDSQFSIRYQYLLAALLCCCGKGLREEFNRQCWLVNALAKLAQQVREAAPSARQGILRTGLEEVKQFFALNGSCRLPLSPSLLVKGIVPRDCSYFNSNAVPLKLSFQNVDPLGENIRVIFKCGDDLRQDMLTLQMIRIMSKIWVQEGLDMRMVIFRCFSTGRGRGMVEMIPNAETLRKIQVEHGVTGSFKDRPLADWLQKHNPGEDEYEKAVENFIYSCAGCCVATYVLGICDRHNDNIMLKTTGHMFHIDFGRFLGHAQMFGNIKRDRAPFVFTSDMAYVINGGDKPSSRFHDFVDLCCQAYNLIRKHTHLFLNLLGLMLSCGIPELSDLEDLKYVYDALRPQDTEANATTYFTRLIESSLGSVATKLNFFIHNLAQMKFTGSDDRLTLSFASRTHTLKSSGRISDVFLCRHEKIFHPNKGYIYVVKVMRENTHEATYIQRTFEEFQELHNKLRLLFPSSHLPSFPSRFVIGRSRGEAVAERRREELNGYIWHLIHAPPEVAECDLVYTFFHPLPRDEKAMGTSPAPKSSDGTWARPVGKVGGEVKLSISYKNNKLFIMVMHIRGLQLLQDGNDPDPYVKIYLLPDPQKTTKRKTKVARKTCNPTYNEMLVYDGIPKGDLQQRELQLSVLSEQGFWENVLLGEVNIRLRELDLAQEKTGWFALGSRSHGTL

SMILES | IC50 [1] [µM] | also measured
CC(C)(C)OC(=O)N1CCN(c2ncc(C(=O)Nc3ccccc3)c(N)n2)CC1 | 35 | –
Nc1nc(N2CCN(c3ccccc3)CC2)ncc1C(=O)Nc1ccccc1 | > 100 | –
Nc1nc(N2CCN(C3CCCCC3)CC2)ncc1C(=O)Nc1ccccc1 | 100 | –
Nc1nc(N2CCCC2)ncc1C(=O)Nc1ccccc1 | 50 | –
CCOC(=O)N1CCN(c2ncc(C(=O)Nc3ccccc3)c(N)n2)CC1 | 8.5 | –
CCCN1CCN(c2ncc(C(=O)Nc3ccccc3)c(N)n2)CC1 | 11.5 | –
CC(C)NC(=O)CN1CCN(c2ncc(C(=O)Nc3ccccc3)c(N)n2)CC1 | 5.6 | –
COc1cccc(OC)c1NC(=O)c1cnc(N2CCC(C)(N)CC2)nc1N | 12.5 | –
CCOC(=O)C1CCN(c2ncc(C(=O)Nc3ccccc3)c(N)n2)CC1 | 2.1 | –
CC1(N)CCN(c2ncc(C(=O)Nc3cccc4ccccc34)c(N)n2)CC1 | 100 | –
CCN1CCN(c2ncc(C(=O)Nc3ccccc3)c(N)n2)CC1 | 10.2 | –
CC1(N)CCN(c2ncc(C(=O)Nc3ccccc3)c(N)n2)CC1 | 1.4 | –
COc1ccccc1CN1CCCC(c2[nH]ccc2C(N)=O)C1 (stereo unspecified) | 19 | –
CC1(N)CCN(c2ncc(C(=O)Nc3ccc([N+](=O)[O-])cc3)c(N)n2)CC1 | 2 | –
CC1(N)CCN(c2ncc(C(=O)Nc3ccccn3)c(N)n2)CC1 | 0.8 | –
CC1(N)CCN(c2ncc(C(=O)Nc3cccc(-c4ccccc4)c3)c(N)n2)CC1 | > 100 | –
COc1ccc(NC(=O)c2cnc(N3CCC(C)(N)CC3)nc2N)cc1 | 1.9 | –
Nc1nc(N2CCN(c3ccccn3)CC2)ncc1C(=O)Nc1ccccc1 | > 100 | –
CC1(N)CCN(c2ncc(C(=O)Nc3ccc4c(c3)Cc3ccccc3-4)c(N)n2)CC1 | 100 | –

SMILES | IC50 [1] [µM] | also measured
CC(C)N1CCN(c2ncc(C(=O)Nc3ccccc3)c(N)n2)CC1 | 9.3 | –
CN(Cc1ccccc1)c1ncc(C(=O)Nc2ccccc2)c(N)n1 | > 100 | –
COc1ccc2nc(C)cc(Nc3ccccc3OC)c2c1 | 13.5 | –
CC1(N)CCN(c2ncc(C(=O)Nc3ccc4ccccc4c3)c(N)n2)CC1 | 8 | –
CC1(N)CCN(c2ncc(C(=O)Nc3ccc(Cl)c(Cl)c3)c(N)n2)CC1 | 0.25 | –
COc1ccc(NC(=O)c2cnc(N3CCC(C)(N)CC3)nc2N)cc1OC | 2.3 | –
CC(=O)N1CCN(c2ncc(C(=O)Nc3ccccc3)c(N)n2)CC1 | 6.7 | –
CC1(N)CCN(c2ncc(C(=O)NCc3ccccn3)c(N)n2)CC1 | 8.1 | –
CC1(N)CCN(c2ncc(C(=O)Nc3cccnc3)c(N)n2)CC1 | 0.089 | inhibition [2]: > 35%; AUC(0-inf) [3]: 1040 ng·h/mL; IC50 [4]: 0.63 µM; bioavailability [5]: 55.1%; inhibition [6]: 64%; Tmax [7]: 4.98 min; half-life [8]: 5.31 h; Vd [9]: 14 L/kg; IC50 [10]: 0.59 µM; AUC(0-inf) [11]: 1880 ng·h/mL; half-life [12]: 4.77 h; inhibition [13]: 50%; clearance [14]: 44.8 mL/min/kg; inhibition [15]: > 35%; Cmax [16]: 101 ng/mL; inhibition [17]: 54%; inhibition [18]: 69%; Tmax [19]: 2.17 h; Cmax [20]: 854 ng/mL
Nc1nc(N2CCOCC2)ncc1C(=O)Nc1ccccc1 | 9.5 | –
Nc1nc(N2CCSCC2)ncc1C(=O)Nc1ccccc1 | 5.6 | –
Nc1nc(N2CCN(C(=O)c3ccco3)CC2)ncc1C(=O)Nc1ccccc1 | 100 | –
CC1(N)CCN(c2ncc(C(=O)Nc3ccc(F)cc3)c(N)n2)CC1 | 0.62 | –
Nc1nc(N2CCc3ccccc3C2)ncc1C(=O)Nc1ccccc1 | 100 | –
Nc1nc(N2CCC3(CC2)OCCO3)ncc1C(=O)Nc1ccccc1 | 12.8 | –
CC1(N)CCN(c2ncc(C(=O)Nc3cc(Cl)cc(Cl)c3)c(N)n2)CC1 | 3.4 | –
CCCCN(C)c1ncc(C(=O)Nc2ccccc2)c(N)n1 | 25 | –
COc1ccc(N2CCN(c3ncc(C(=O)Nc4ccccc4)c(N)n3)CC2)cc1 | > 100 | –
